Read-outs that look alike come from different tables or passages of the source.
How the values were obtained:
[1] = molecular target: T1, TcrNT2 (Trypanosoma cruzi, UniProt Q4DHG0); experiment: Transport of [^3H]-thymidine by TcrNT2 expressed in L. mexicana Cas9^ΔNT1 (Km, inhibition); format: cell-based; details: for δ(ΔG°) with respect to ΔG° of thymidine: change in ΔG° relative to thymidine
Procedure: These values can be used to calculate the Gibbs free energy of interaction ΔG°, but these experiments cannot distinguish between the test compound being transported or merely binding to the transporter and inhibiting the transit of the [^3H]-thymidine.
Transport assays were conducted with radiolabeled nucleosides [methyl-^3H]-thymidine (20 Ci/mmol; PerkinElmer (Waltham, MA, USA)) and [2,8-^3H]-adenosine (40 Ci/mmol; American Radiolabeled Chemicals (ARC, St-Louis, MO, USA)). Cells were harvested from mid-log phase cultures by centrifugation and washed into an assay buffer (AB) as described, at a density of 1 × 10^8 cells mL^−1. Transport assays were then performed exactly as described previously, using an oil-stop protocol. Briefly, 100 µL of cell suspension (10^7 cells) was mixed with 100 µL of [^3H]-substrate at 2 × final concentration and incubated for a pre-set time prior to the addition of 800 µL of ice-cold AB containing a saturating concentration of unlabeled permeant (usually 1 or 2.5 mM) and immediate centrifugation through an oil layer to separate cells from extracellular radiolabel. The 100 µL of [^3H]-substrate could also contain unlabeled substrate or an inhibitor at 2 × concentration, as appropriate. Next, the microfuge tubes were flash frozen in liquid nitrogen; the tips with the cell pellets cut off and collected in scintillation tubes. Cells were solubilized by incubation in 2% SDS under gentle shaking on a rocking platform prior to the addition of scintillation fluid (Scintilogic U, Lablogic, Sheffield, UK). The tubes stored in the dark overnight before counting in a 300SL Hidex Scintillation Counter (Lablogic).
Michaelis-Menten constants (Km) were calculated by plotting transport rates of [^3H]-substrate against the concentration, using the Michaelis-Menten equation V0 = Vmax([substrate]/([substrate] + Km)) and non-linear regression in GraphPad Prism 8. Inhibition constants (Ki) were calculated using the Cheng-Prusoff equation: Ki = IC50/(1 + (L/Km)), where L represents the radiolabel concentration. The IC50 was obtained by a non-linear regression of the inhibition curve of transport rate versus inhibitor concentration, using an equation for a sigmoid curve with variable slope (GraphPad Prism 8). The Gibbs free energy ΔG° was obtained using the equation ΔG° = −RTln(Ki), in which R is the gas constant and T is the absolute temperature. As discussed previously, these equations apply to competitive rather than non-competitive inhibition. Given that only close analogues of the substrate were used as potential inhibitors and that Hill slopes were consistently close to −1, it is very likely that inhibition was indeed competitive.

[2] = molecular target: T1, TcrNT2; details: cited from earlier work; for Ki: earlier characterization, TcrNT2 expressed in T. brucei, ref Campagnaro et al. [30], read-out: Ki on thymidine transport by TcrNT2
[3] = system: L. mexicana Cas9^ΔNT1+TcrNT2 promastigotes; experiment: Alamar blue drug sensitivity assay, L. mexicana Cas9^ΔNT1+TcrNT2 promastigotes; format: cell-based, Leishmania mexicana; details: Cas9^ΔNT1+TcrNT2 in comparison to L. mexicana Cas9^ΔNT1
Source text: (§1) We used L. mexicana promastigotes of the Cas9 strain developed by Beneke at al. to generate the ΔNT1 strain, and from there the Cas9^ΔNT1+TcrNT2 (see below); The original Cas9 strain was generously donated by Prof. Eva Gluenz (University of Bern, Switzerland). All strains in standard HOMEM (GIBCO, Life Technologies, Paisley, UK) supplemented with 10% heat-inactivated fetal bovine serum (FBS; PAA Laboratories, Linz, Austria) and 1% of a penicillin–streptomycin solution (10,000 U mL^−1 each; Life Technologies) at 25 °C, as described.
(§2) The Alamar blue assay (resazurin sodium salt) was used to determine the drug sensitivity of the L. mexicana promastigotes in vitro. The assay is based on the reduction of resazurin sodium salt (blue and non-fluorescent) to resorufin (pink color and fluorescent) by live cells. HOMEM medium with 10% FBS (100 μL) was added to all wells of a white 96-well plate apart from the first well. 200 μL of a known concentration of test compounds was diluted in HOMEM medium and placed in the first well. Compounds were tested in one plate and every compound was diluted over two rows (23 concentrations), leaving the last well of every dilution as a negative control having 100 μL HOMEM medium. Next, 100 μL of L. mexicana culture at a density of 2 × 10^6 cells mL^−1 was added into every well in the plate and incubated for 72 h at a temperature of 25 °C after which resazurin sodium salt (Sigma) (20 μL of a solution of 12.5 mg in 100 mL PBS) was added and the plate was incubated under the same conditions for a further 48 h. Fluorescence was measured in a FLUOstar OPTIMA plate reader (BMG Labtech, Germany), at a wavelength of 544 nm for excitation and 620 nm for emission. The EC50 values and fluorescence data were determined and plotted by the GraphPad Prism 8 Software using an equation for a sigmoid curve with variable slope. Pentamidine was used as positive control and every experiment was performed 3–4 times independently.

[4] = system: L. mexicana Cas9 promastigotes; experiment: Alamar blue drug sensitivity assay, L. mexicana Cas9 promastigotes; format: cell-based, Leishmania mexicana; details: Leishmania mexicana, 120 h, 72 h + 48 h resazurin, at least 3 independent determinations, read-out: EC50 (µM) AVG ± SEM, Cas9
Source text: as §1, §2

[5] = system: L. mexicana Cas9^ΔNT1 promastigotes; experiment: Alamar blue drug sensitivity assay, L. mexicana Cas9^ΔNT1 promastigotes; format: cell-based, Leishmania mexicana; details: EC50 Cas9^ΔNT1 relative to L. mexicana Cas9
Source text: as §1, §2

[6] = calculated from Km or Ki at 25 °C
[7] = read-out: Ki on the transport of [^3H]-thymidine by TcrNT2

T1 sequence (Q4DHG0 entry or part of it): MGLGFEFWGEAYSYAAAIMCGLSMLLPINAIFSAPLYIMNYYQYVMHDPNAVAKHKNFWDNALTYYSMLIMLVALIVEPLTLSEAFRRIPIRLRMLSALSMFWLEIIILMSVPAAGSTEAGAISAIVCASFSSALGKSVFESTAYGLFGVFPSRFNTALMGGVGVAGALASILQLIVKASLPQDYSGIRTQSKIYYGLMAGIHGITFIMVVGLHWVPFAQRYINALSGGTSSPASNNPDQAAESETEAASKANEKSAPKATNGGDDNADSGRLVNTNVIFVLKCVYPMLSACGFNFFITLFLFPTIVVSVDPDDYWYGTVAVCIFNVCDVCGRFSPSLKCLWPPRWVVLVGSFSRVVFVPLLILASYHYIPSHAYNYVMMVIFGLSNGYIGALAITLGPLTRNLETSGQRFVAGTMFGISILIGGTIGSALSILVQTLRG

## Cc1cn([C@H]2CC[C@@H](CO)O2)c(=O)[nH]c1=O [3′-deoxythymidine]
[1]; [6]
  ΔG° (Gibbs free energy of interaction): -4.76 kcal/mol
[1]
  δ(ΔG°) with respect to ΔG° of thymidine: -4.21 kcal/mol
[1]; [7]
  Ki: 322 ± 22.6 µM

## O=c1ccn([C@@H]2O[C@H](CO)[C@@H](O)[C@H]2O)c(=O)[nH]1 [Uridine]
[1]; [6]
  ΔG° (Gibbs free energy of interaction): -5.14 kcal/mol
[1]
  δ(ΔG°) with respect to ΔG° of thymidine: -3.85 kcal/mol
[1]; listed as uridine
  δ(ΔG°) with respect to ΔG° of thymidine: 3.85 kcal/mol
[1]; pairwise comparison vs. 2′-deoxyuridine
  δ(ΔG°), pairwise comparison with 2′-deoxyuridine: 2.89 kcal/mol
[1]; [7]
  Ki: 172 ± 8 µM
[2]; TcrNT2 expressed in T. b. brucei, ref [30]
  fold lower affinity than thymidine: 300 fold

## Nc1ccn([C@@H]2O[C@H](CO)[C@@H](O)[C@H]2O)c(=O)n1 [cytidine]
[2]
  Ki: 728 ± 71 µM

## C[C@H]1O[C@@H](n2ccc(=O)[nH]c2=O)[C@H](O)[C@@H]1O [5′-deoxyuridine]
[1]; pairwise comparison vs. uridine
  δ(ΔG°), pairwise comparison with uridine: -1.05 kcal/mol
[1]; [7]
  Ki: 1020 ± 57 µM

## Nc1ncnc2c1c(-c1ccc(Cl)c(Cl)c1)cn2[C@@H]1O[C@H](CO)C[C@H]1O [FH8513, 7-(3,4-dichlorophenyl)-3′-deoxytubercidin]
[3]
  RF vs. ΔNT1 (resistance factor): 3
[4]
  EC50: ~100 µM
[5]
  RF vs. Cas9 (resistance factor): 0.94

## Cc1cn([C@H]2C[C@H](O)[C@@H](CO)O2)c(=S)[nH]c1=O [2-thiothymidine]
[1]
  Ki: 3.38 ± 0.26 µM
  ΔG° (Gibbs free energy of interaction): -7.46 kcal/mol

## Cc1ncnc2c1c(-c1ccc(Cl)cc1)cn2[C@@H]1O[C@H](CO)[C@@H](O)[C@H]1O [CL4501]
[3]
  RF vs. ΔNT1 (resistance factor): 2.2
[4]
  EC50: ~100 µM
[5]
  RF vs. Cas9 (resistance factor): 0.84

## Nc1ncnc2c1c(F)cn2[C@@H]1O[C@H](CO)[C@@H](F)[C@H]1O [JB588, 7-F,3′-F-tubercidin]
[3]
  RF vs. ΔNT1 (resistance factor): 2.15
[4]
  EC50: 0.51 ± 0.093 µM
[5]
  RF vs. Cas9 (resistance factor): 17.3

## CNc1ncnc2c1ccn2[C@@H]1O[C@H](CO)[C@@H](O)[C@H]1O [CL5564]
[3]
  RF vs. ΔNT1 (resistance factor): >5.6
[4]
  EC50: > 100 µM

## Nc1ncnc2c1c(I)cn2[C@@H]1O[C@H](CO)[C@@H](F)[C@H]1O [JB526, 7-I,3′-F-tubercidin]
[3]
  RF vs. ΔNT1 (resistance factor): 11.6
[4]
  EC50: ~100 µM
[5]
  RF vs. Cas9 (resistance factor): ~0.84

## O=c1ccn([C@H]2C[C@H](O)[C@@H](CO)O2)c(=O)[nH]1 [2′-deoxyuridine]
[1]; [6]
  ΔG° (Gibbs free energy of interaction): -8.03 kcal/mol
[1]
  δ(ΔG°) with respect to ΔG° of thymidine: -0.954 kcal/mol
[1]; [7]
  Ki: 1.31 ± 0.002 µM
[2]
  Ki: 1.11 ± 0.1 µM

## N=C(N)c1ccc(OCCCCCOc2ccc(C(=N)N)cc2)cc1 [Pentamidine]
[3]
  RF vs. ΔNT1 (resistance factor): 1.11
[4]
  EC50: 0.87 ± 0.104 µM
[5]
  RF vs. Cas9 (resistance factor): 1.43

## Nc1ncnc2c1c(F)cn2[C@@H]1O[C@H](CO)[C@@H](O)[C@H]1O [FH3167, 7-F-tubercidin]
[3]
  RF vs. ΔNT1 (resistance factor): 41.9
[4]
  EC50: 0.22 ± 0.09 µM
[5]
  RF vs. Cas9 (resistance factor): 40.7

## C#Cc1cn([C@@H]2O[C@H](CO)C[C@H]2O)c2ncnc(N)c12 [FH8505]
[3]
  RF vs. ΔNT1 (resistance factor): 1.47
[4]
  EC50: 47.2 ± 1.47 µM
[5]
  RF vs. Cas9 (resistance factor): 1.13

Source: paper PMC9693223 (Molecules, 2022)
